Kd data for two compounds are collected here from PMC3633653 (Molecular microbiology, 2013).

This assay concerns the target T1, EI^Ntr (Escherichia coli, UniProt P37177).
T1 sequence (P37177 1-748): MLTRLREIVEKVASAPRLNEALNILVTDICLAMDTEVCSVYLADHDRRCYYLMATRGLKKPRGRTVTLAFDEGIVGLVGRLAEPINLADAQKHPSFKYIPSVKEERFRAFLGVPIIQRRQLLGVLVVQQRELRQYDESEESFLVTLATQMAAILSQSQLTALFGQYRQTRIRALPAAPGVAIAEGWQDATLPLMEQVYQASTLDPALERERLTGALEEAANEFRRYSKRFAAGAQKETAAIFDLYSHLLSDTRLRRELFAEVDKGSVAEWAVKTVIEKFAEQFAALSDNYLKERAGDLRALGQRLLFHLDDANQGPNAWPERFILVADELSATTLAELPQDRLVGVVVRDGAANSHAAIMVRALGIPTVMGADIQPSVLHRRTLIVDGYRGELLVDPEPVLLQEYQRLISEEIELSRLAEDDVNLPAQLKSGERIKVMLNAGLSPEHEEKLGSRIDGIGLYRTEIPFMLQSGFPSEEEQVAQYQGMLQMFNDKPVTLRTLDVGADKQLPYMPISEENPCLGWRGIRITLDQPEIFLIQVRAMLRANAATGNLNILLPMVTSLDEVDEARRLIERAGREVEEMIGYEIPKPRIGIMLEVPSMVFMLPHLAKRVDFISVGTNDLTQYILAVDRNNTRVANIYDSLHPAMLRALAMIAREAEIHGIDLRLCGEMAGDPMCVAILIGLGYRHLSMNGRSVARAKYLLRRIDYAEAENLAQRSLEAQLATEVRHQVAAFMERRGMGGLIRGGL
In words: intrinsic tryptophan fluorescence quenching. The format is binding.

As to `NC(=O)CC[C@H](N)C(=O)O` [glutamine], the Kd came to 700 µM.
As to `O=C(O)CCC(=O)C(=O)O` [α-ketoglutarate], binding was characterised by a dissociation constant (Kd) of 3300 µM.
